{"source": "patent US20090180958A1", "about": "“Diagnostic and therapeutic agents” (Karyon-CTT Ltd., priority 2005, published 2009)", "key": {"[1]": {"tested_on": "A549, NCI-H23, NCI-H520, NCI-H460, C8161/M1, HeLa, NIH3T3, E10V, SVEC4-10 cell lines", "assay": "Cytotoxicity assay (MTT)", "assay_type": "cell-based", "conditions": "50 μg/ml and 500 μg/ml; 24 h, 48 h (72 h); all nine tested cell lines", "procedure": "In this assay cell lines were exposed to two different concentrations (50 μg/and 500 μg/ml) of IS257 targeting unit (described in Example 3) for two to three days to test the toxicity of the peptides. The measurement of cell viability was done with MTT (Thiazolyl blue, Sigma M-5655 ) tetrazolium salt. MTT is cleaved to water-insoluble formazan dye by the “succinate-tetrazolium reductase” system which is active only in viable cells. After formazan was solubilized by 10% SDS-0.01 M HCl, it was quantified in an ELISA spectrometer (ThermoLabsystems Multiscan EX) at 560 nm. CuSAO2 [trans-bis(salicylaldoximato) copper(II)] (Elo HO, Lumme PO., 1985) 7.5 μg/ml was used as a positive control for 100% toxicity.\nProcedure. Cells were trypsinized from the cell culture dish (ø9 cm) with 1 ml of TE for 1-5 minutes and moved to a 50 ml Falcon tube. […]\nThen 40 μl of IS257 targeting unit in appropriate medium were added to the wells in two concentrations, so that final concentrations were 50 μg/ml and 500 μg/ml, and the volume of the wells was raised back to 100 μl. […] The next day the cell morphology was analyzed with a microscope. […]\nThe next day, the MTT assay described above was performed. The viable count (v.c.) was calculated as:\nAverage toxicated cell absorbance−Average DMEM absorbance=Viable count Average living cell absorbance−Average DMEM absorbance […]"}, "[2]": {"assay": "In vivo cytotoxicity (behaviour after i.v. injection)", "parameters": "species or system Athymic nude mice", "conditions": "1 mg i.v. tail vein; observed 30 min after injection and 15 min on following day", "procedure": "The behaviour of mice was observed during 30 min right after injection and during 15 min on the following day (comparison to non-injected mouse). Three mice were taken into this study (plus non-injected controls)."}, "A549 cells": {"tested_on": "A549 cells", "assay": "Fluorescent targeting agent staining of fixed cells", "assay_type": "cell-based, human", "conditions": "500 μg/ml in PBS, pH 7.4, added prior to F5M-A49", "experimental": "A549 cells and HeLa cells (described in Example 18) were grown on glass slides, washed with PBS and then fixed with methanol. The fluorescent targeting agent F5M-A49 (described in Example 10) was used to stain these cells as follows: Cells were first blocked with blocking buffer (1.0% BSA, 0.05% Tween20 in PBS, pH 7.4) for one hour at 20° C. The cells on the glass slides were incubated with 20 μl of F5M-A49 targeting agent (50 μg/ml in PBS, pH 7.4). As control, binding of F5M-A49 was competed with 20 μl of IS257 targeting unit (free peptide described in Example 3), 500 μg/ml in PBS, pH 7.4) prior to addition of the targeting agent. As negative controls, cells not incubated with any targeting agent were used. After the staining the cells were mounted on object glasses with mountex (Histolab Products Ltd). After this cells were viewed under a fluorescent microscope (Carl Zeiss Microscopy, Jena, Germany)."}, "[3]": {"assay": "Immunogenicity: immunization of mice and serological antibody ELISA", "assay_type": "in vivo, balb/c female mice", "conditions": "i.p. 50 μg day 0, 25 μg days 14, 28, 56, 84; end point bleed day 98, serum 1:40; HP201 as capture antigen", "procedure": "Mice and immunization. Female 6- to 8-week old balb/c female mice (Harlan Laboratories, The Netherlands) were used in this study. The targeting unit IS257 (described in Example 3) was dissolved in sterile saline at 0.5 mg/ml and 0.25 mg/ml concentrations. A group of five mice were initially immunized intraperitoneally with 50 μg of targeting unit on day 0. The following immunizations were done with 25 μg of targeting unit on days 14, 28, 56 and 84. Mice were bled from the tail vein on day 0 (preimmune bleed) and thereafter on days 42, 70, and 98 (end point bleed). Blood was collected in tubes and the serum was clarified by centrifugation at 3500 RPM for 7 minutes. […]\nSerological antibody assay. […] The wells were washed five times with washing buffer (PBS containing 0.05% Tween20) before incubating for 1 h at 37° C. with 150 μl of a 1:1000 dilution of horseradish peroxidase conjugated Affinipure of goat anti-mouse IgG+IgM (Jackson ImmunoResearch Europe Ltd) and detected with a DAB (3,3′-diaminobentzidine) substrate kit for peroxidase (Vector Laboratories).\nAs a positive control the horseradish peroxidase conjugated Affinipure goat anti-mouse IgG+IgM (10 μg/ml) was used to coat the wells of Reacti-Bind Maleimide activated clear strip plate overnight at 4° C. […] The plates were read at 405 nm using an ELISA plate reader (ThermoLabsysrems Multiskan EX)."}}, "data": [{"substance": "Ac-ARRPKLD-NH2 [IS257]", "values": [{"measurement": "toxicity to cell lines (viable count, MTT)", "setting": "[1]", "result": "non-toxic"}, {"measurement": "toxic effect on mice (behaviour)", "setting": "[2]", "result": "did not have any toxic effect"}, {"measurement": "competition of F5M-A49 binding to A549 cells by free peptide", "setting": "A549 cells", "result": "blocked"}, {"measurement": "immunogenicity (anti-targeting unit antibodies in serum, ELISA, absorbance at 405 nm)", "setting": "[3]", "result": "non-immunogenic"}]}]}
